This note sets out measurements from paper PMC6450673, “Targeted degradation of aberrant tau in frontotemporal dementia patient-derived neuronal cell models” (eLife, 2019).

Each structure is given as a SMILES string.

Assay [1] concerns the target T1, recombinant human tau Tau-441(P301L) (Homo sapiens, UniProt P10636, P618L).
T1 construct: biotin (chemical label, NHS-PEG4); purchased SignalChem T08-56FN; host or cells: E. coli
The assay can be described thus: Bio-layer interferometry (BLI) biosensor assay, tau P301L. It counts as binding. The conditions noted are these: BLI steady-state analysis, immobilized biotinylated tau; Figure 1—figure supplement 1B. On the procedure:
(§1) BLI was performed in the Octet Red384 instrument (ForteBio, Fremont CA, USA) with 1X PBS and 0.01% Brij-35 as the assay buffer. […] The biotinylated protein samples for BLI were purified in 1X phosphate buffered saline (PBS). Streptavidin (SA) sensors were used to measure the biophysical interaction between the small molecules and biotinylated tau. Prior to the initiation of BLI, the SA sensors were soaked by dipping in 200 μL of assay buffer in a 96-well Greiner Bio-One Black flat bottom plate (Greiner, Monroe NC, USA Cat.655209). The assay was performed in 80 μL volume in Greiner Bio-One 384-well black flat bottom PP plates (Greiner, Cat.781209) with an initial baseline step, followed by loading of 250 nM biotinylated tau protein. The small molecules samples and recombinant proteins were arranged in the 384-well plate according to a plate map recommended for the eight-channel mode kinetic analysis, where the sensors move from low to high concentration of small molecule samples. Subsequent steps included a second baseline (120 s), followed by association (240 s) and dissociation (240 s) cycles. […] When Req option is selected, Fortebio’s software calculates affinity constants based on the Req values determined from the curve fits. […]
Background: BLI is a label-free optical method that tracks binding on a fibre tip over time.

Assay [2] addresses T2, total tau (TAU5) in control-1 8330–8-RC1 neurons (Homo sapiens, UniProt P10636).
T2 construct: modeling pathogenic tau species without the need for overexpression of heterologous genes; endogenous in cells; host or cells: 8330-8-RC1, MGH2069-RC1, CTR2-L17-RC2 human iPSC-derived neurons
Nature of the assay: Western blot of total tau in control line 1 neurons. The class given is cell-based. The conditions noted are these: control line 1, western blot, 1 μM, 24 hr. The text has this:
(§2) Cells from individuals carrying the tau risk variant A152T (c.1407G > A; NCBI RefSeq NM_001123066, rs143624519), the autosomal dominant mutation P301L (c.C1907T; NCBI NM_001123066, rs63751273), or age-matched non-mutant WT tau were employed in this study (Figure 2—source data 1). Dermal fibroblasts from the tau-P301L carrier and the healthy individual were generated from a skin biopsy from subjects within the MGH Frontotemporal Disorders Unit as part of the MGH Neurodegeneration Repository. Approval for human subjects’ work was obtained under a Partners/MGH-approved IRB Protocol (#2010P001611/MGH). […]
(§3) Neurons differentiated in six-well plates for 6 weeks were washed and collected in PBS, lysed in RIPA buffer (Boston Bio-Products, Boston, MA) supplemented with 2% SDS (Sigma), protease inhibitors cocktail (Roche Complete Mini tablets, Mannheim, Germany), and phosphatase inhibitors cocktail (Sigma), followed by water sonication (Bransonic Ultrasonic Baths, Thomas Scientific, Danbury, CT) and 20,000 g centrifugation for 20 min. Supernatants were transferred to new tubes and total protein concentration was quantified with the Pierce BCA Protein Assay Kit (ThermoFisher Scientific, Carlsbad, CA). […]

The target of assay [3] is T3, P-tau S396 in control-1 8330–8-RC1 neurons (Homo sapiens, UniProt P10636).
T3 construct: modeling pathogenic tau species without the need for overexpression of heterologous genes; endogenous in cells; host or cells: 8330-8-RC1, MGH2069-RC1, CTR2-L17-RC2 human iPSC-derived neurons
T3 sequence (P10636 1-441 isoform P10636-8): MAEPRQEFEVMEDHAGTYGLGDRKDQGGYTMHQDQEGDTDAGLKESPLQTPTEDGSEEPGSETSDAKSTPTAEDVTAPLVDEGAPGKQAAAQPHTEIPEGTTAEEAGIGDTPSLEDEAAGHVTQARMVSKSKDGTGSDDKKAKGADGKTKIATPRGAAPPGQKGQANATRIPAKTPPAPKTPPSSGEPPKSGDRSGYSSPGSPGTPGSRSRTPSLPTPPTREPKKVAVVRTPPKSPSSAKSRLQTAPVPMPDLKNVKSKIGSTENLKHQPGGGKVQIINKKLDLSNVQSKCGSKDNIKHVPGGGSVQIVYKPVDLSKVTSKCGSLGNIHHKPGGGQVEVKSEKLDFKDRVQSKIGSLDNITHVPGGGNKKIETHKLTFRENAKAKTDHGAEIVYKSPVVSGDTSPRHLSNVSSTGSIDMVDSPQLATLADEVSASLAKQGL
The assay can be described thus: Western blot of P-tau S396 in control line 1 neurons. The settings on record: control line 1, western blot, 1 μM, 24 hr. It counts as cell-based.
Description: as §2, §3
Background: In western blotting, separated proteins are transferred to a membrane and probed.

The target in assay [4] is T4, recombinant human tau Tau-441(WT) (Homo sapiens, UniProt P10636).
T4 construct: biotin (chemical label, NHS-PEG4); purchased SignalChem T08-54BN; host or cells: E. coli
T4 sequence (P10636 1-441 isoform P10636-8): as above
The assay can be described thus: Bio-layer interferometry (BLI) biosensor assay, tau WT. The class given is binding. The settings on record: BLI steady-state analysis, immobilized biotinylated tau; Figure 1—figure supplement 1B. On the procedure: as §1

T1 sequence (P10636 1-441 isoform P10636-8 P301L): as the sequence (P10636 1-441 isoform P10636-8) above, with P301L counted along it
T2 sequence (P10636 1-441 isoform P10636-8): as the sequence (P10636 1-441 isoform P10636-8) above

In the case of `O=C(CCc1ccc2c(c1)[nH]c1ccncc12)NCCOCCOCCNc1cccc2c1C(=O)N(C1CCC(=O)NC1=O)C2=O` (stereo not shown) [QC-01–175], the Kd – broadly, the equilibrium constant for the complex coming apart – in assay [1] was 2500 nM; in assay [4], 1200 nM. Also, the degradation of tau entry in assay [2] is on record as “unable to induce significant degradation”. For the same compound, the “degradation of P-tau” value in assay [3] is reported as “unable to induce significant degradation”.
